From publication PMC10745882, “Investigation of Drug-Interaction Potential for Arthritis Dietary Supplements: Chondroitin Sulfate, Glucosamine, and Methylsulfonylmethane” (Molecules, 2023)

Assays:
CYP2B6 = target: T1, CYP2B6 (Homo sapiens, UniProt P20813); assay: CYP inhibition assay in human liver microsomes (LC-MS/MS cocktail), bupropion to OH-bupropion; format: in vitro ADME
T1 construct: Pooled human liver microsomes were purchased from BD Gentest; tissue BD Gentest; host or cells: pooled human liver microsomes
T1 sequence (P20813 1-491): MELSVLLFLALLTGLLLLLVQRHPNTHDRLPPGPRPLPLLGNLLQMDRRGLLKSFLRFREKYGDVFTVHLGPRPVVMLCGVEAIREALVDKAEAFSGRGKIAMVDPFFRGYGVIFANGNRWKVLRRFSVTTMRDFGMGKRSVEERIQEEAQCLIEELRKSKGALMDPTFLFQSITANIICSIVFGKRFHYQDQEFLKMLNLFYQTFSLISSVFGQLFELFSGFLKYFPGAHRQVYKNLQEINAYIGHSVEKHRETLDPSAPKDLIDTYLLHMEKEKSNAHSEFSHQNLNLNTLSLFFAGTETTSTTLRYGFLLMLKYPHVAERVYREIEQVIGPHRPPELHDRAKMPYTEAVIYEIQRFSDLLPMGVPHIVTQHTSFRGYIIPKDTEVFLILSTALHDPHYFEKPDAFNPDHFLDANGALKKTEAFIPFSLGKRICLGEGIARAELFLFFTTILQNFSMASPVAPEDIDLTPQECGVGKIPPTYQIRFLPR
Description: (§1) For the experimental method, the reference method was used. Briefly, incubation mixtures were composed of 0.5 mg/mL human liver microsomes; varying concentrations of CS in DW (0.1, 0.3, 1, 3, 10, 30, 100, and 200 µM) or MSM in DW (0.1, 0.3, 1, 3, 10, 30, 100, 300, and 1000 µM) or GCS in DMSO (0.1, 0.3, 1, 3, 10, 30, 100, 300, and 1000 µM); a substrate mixture in DMSO (40 µM phenacetin for CYP1A2; 2.5 µM coumarin for CYP2A6; 80 µM bupropion for CYP2B6; 10 µM diclofenac for CYP2C9; 80 µM [±]-mephenytoin for CYP2C19; 5 µM dextromethorphan for CYP2D6; 2.5 µM midazolam and 30 µM testosterone for CYP3A4); and an NADPH generating system (NGS; 0.1 M glucose-6-phosphate, 10 mg/mL β-NADP^+, and 1 U/mL glucose-6-phosphate dehydrogenase) in a total volume of 200 µL potassium phosphate buffer (0.1 M, pH 7.4). The reaction mixture, excluding NGS, underwent pre-incubation at 37 °C for 5 min, followed by further incubation with NGS for 30 min in a water bath. Well-established selective CYP inhibitors were employed as positive controls (40 µM ketoconazole for CYP3A4, 50 µM furafyllin for CYP1A2, 10 µM quinidine for CYP2D6, 125 µM ticlopidine for CYP2C19 and CYP2B6, 10 µM 8-methoxsalen for CYP2A6, and 10 µM sulfaphenazole for CYP2C9). Post incubation, the reaction was halted by adding 50 µL ice-cold 1% formic acid acetonitrile. After centrifugation at 13,200 rpm for 5 min, the supernatant was collected from the sample and subjected to analysis via an LC-MS/MS system. All experiments were performed in triplicate.
(§2) For the experimental method, the reference method was used. The LC-MS/MS system utilized in this study consisted of an Agilent 1260 binary pump HPLC system coupled with the Agilent 6460 Triple Quadrupole mass spectrometer (Agilent Technologies, Santa Clara, CA, USA), featuring an electrospray ionization source. Chromatographic separation was achieved using a Fortis C8 column (2.1 × 100 mm, 5.0 µm; Fortis Technologies Ltd., Neston, UK). The HPLC mobile phases comprised (A) 0.1% formic acid and (B) 0.1% formic acid in 90% acetonitrile. A gradient elution method was employed with an initial solvent B concentration of 15% and a flow rate of 0.25 mL/min. […] The total run time was 11.0 min, and the injection volume was 5 µL. Mass detection was conducted in the positive ion mode using multiple reaction monitoring (MRM). Specific MRM transitions for each analyte are detailed in Table S4.

CYP2C9 [1] = target: T2, CYP2C9 (Homo sapiens, UniProt P11712); assay: CYP inhibition assay in human liver microsomes (LC-MS/MS cocktail), diclofenac to 4-OH-diclofenac; format: in vitro ADME
T2 construct: Pooled human liver microsomes were purchased from BD Gentest; tissue BD Gentest; host or cells: pooled human liver microsomes
Description: as §1, §2

CYP2D6 [2] = target: T3, CYP2D6 (Homo sapiens, UniProt P10635); assay: CYP inhibition assay in human liver microsomes (LC-MS/MS cocktail), dextromethorphan to dextrorphan; format: in vitro ADME
T3 construct: Pooled human liver microsomes were purchased from BD Gentest; tissue BD Gentest; host or cells: pooled human liver microsomes
Description: as §1, §2

[3] = set-up: method as in doi:10.4172/2155-9600.1000748, PMID 16168682, PMID 19912983; conditions: common daily dose 1500 mg/day; cited from earlier work
CYP2D6 [4] = target: T3, CYP2D6; set-up: method as in PMID 34821124, PMID 29488228; conditions: previous studies; cited from earlier work
CYP2C9 [5] = test system: CYP2C9; set-up: method as in PMID 34821124, PMID 29488228; conditions: previous studies; cited from earlier work
[6] = set-up: method as in PMID 25417766; conditions: rats; 1:4 (paracetamol:GCS) ratio; cited from earlier work
CYP2E1 = test system: CYP2E1; set-up: method as in PMID 20408500; conditions: related report; cited from earlier work
[7] = cited from earlier work
[8] = set-up: method as in PMID 16942821, PMID 37489348, PMID 31331587; conditions: typical doses as monotherapy; cited from earlier work

T2 sequence (P11712 whole entry): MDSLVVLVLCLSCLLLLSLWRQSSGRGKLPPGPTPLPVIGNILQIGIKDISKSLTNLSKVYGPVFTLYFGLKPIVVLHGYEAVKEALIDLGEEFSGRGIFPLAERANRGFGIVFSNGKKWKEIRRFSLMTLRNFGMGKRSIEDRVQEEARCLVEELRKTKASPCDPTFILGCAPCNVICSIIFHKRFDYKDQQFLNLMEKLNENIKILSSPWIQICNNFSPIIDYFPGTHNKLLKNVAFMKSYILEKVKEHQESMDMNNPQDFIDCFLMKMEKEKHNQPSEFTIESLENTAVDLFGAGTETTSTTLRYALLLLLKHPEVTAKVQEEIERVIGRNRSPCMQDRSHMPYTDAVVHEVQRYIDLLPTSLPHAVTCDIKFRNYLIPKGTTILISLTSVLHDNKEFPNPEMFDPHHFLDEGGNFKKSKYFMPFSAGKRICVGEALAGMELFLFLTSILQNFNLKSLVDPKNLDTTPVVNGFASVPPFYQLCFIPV
T3 sequence (P10635 whole entry): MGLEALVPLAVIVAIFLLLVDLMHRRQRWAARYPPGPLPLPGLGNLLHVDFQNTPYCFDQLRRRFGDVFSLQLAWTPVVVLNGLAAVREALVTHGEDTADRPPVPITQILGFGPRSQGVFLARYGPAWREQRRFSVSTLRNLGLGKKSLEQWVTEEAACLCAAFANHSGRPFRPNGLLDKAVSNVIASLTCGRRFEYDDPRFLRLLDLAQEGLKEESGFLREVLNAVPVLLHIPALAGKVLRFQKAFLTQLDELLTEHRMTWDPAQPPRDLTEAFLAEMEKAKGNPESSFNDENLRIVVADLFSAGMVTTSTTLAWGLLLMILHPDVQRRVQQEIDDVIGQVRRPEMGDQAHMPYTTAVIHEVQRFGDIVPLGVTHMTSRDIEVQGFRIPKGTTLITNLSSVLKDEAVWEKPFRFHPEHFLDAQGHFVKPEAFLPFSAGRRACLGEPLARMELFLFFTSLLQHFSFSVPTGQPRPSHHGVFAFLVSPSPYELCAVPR

SMILES: N[C@H]1C(O)O[C@H](CO)[C@@H](O)[C@@H]1O (stereo partly drawn) [GCS, glucosamine]
- Remaining Activities (% of Control, n = 3) (CYP2B6; test substance 0.3 μM): 121.0 ± 11.6 % of Control
- Remaining Activities (% of Control, n = 3) (CYP2B6; test substance 1 μM): 116.2 ± 5.8 % of Control
- Remaining Activities (% of Control, n = 3) (CYP2B6; test substance 3 μM): 114.3 ± 3.5 % of Control
- Remaining Activities (% of Control, n = 3) (CYP2B6; test substance 10 μM): 108.2 ± 3.1 % of Control
- Remaining Activities (% of Control, n = 3) (CYP2B6; test substance 30 μM): 107.8 ± 1.3 % of Control
- Remaining Activities (% of Control, n = 3) (CYP2B6; test substance 100 μM): 111.2 ± 2.3 % of Control
- Remaining Activities (% of Control, n = 3) (CYP2B6; test substance 300 μM): 105.6 ± 1.8 % of Control
- Remaining Activities (% of Control, n = 3) (CYP2B6; test substance 1000 μM): 103.5 ± 9.2 % of Control
- Remaining Activities (% of Control, n = 3) (CYP2C9 [1]; test substance 0.3 μM): 115.5 ± 15.2 % of Control
- Remaining Activities (% of Control, n = 3) (CYP2C9 [1]; test substance 1 μM): 108.7 ± 1.7 % of Control
- Remaining Activities (% of Control, n = 3) (CYP2C9 [1]; test substance 3 μM): 109.2 ± 2.4 % of Control
- Remaining Activities (% of Control, n = 3) (CYP2C9 [1]; test substance 10 μM): 104.0 ± 2.3 % of Control
- Remaining Activities (% of Control, n = 3) (CYP2C9 [1]; test substance 30 μM): 105.8 ± 2.7 % of Control
- Remaining Activities (% of Control, n = 3) (CYP2C9 [1]; test substance 100 μM): 101.2 ± 4.8 % of Control
- Remaining Activities (% of Control, n = 3) (CYP2C9 [1]; test substance 300 μM): 97.2 ± 2.8 % of Control
- Remaining Activities (% of Control, n = 3) (CYP2C9 [1]; test substance 1000 μM): 91.1 ± 10.1 % of Control
- Remaining Activities (% of Control, n = 3) (CYP2D6 [2]; test substance 0.3 μM): 107.6 ± 7.4 % of Control
- Remaining Activities (% of Control, n = 3) (CYP2D6 [2]; test substance 1 μM): 104.9 ± 1.0 % of Control
- Remaining Activities (% of Control, n = 3) (CYP2D6 [2]; test substance 3 μM): 106.2 ± 3.7 % of Control
- Remaining Activities (% of Control, n = 3) (CYP2D6 [2]; test substance 10 μM): 101.6 ± 0.5 % of Control
- Remaining Activities (% of Control, n = 3) (CYP2D6 [2]; test substance 30 μM): 100.4 ± 1.4 % of Control
- Remaining Activities (% of Control, n = 3) (CYP2D6 [2]; test substance 100 μM): 102.6 ± 1.7 % of Control
- Remaining Activities (% of Control, n = 3) (CYP2D6 [2]; test substance 300 μM): 100.6 ± 1.3 % of Control
- Remaining Activities (% of Control, n = 3) (CYP2D6 [2]; test substance 1000 μM): 99.5 ± 4.8 % of Control
- maximum plasma concentrations [3]: ~9 µM
- inhibitory effects on CYP2D6 (CYP2D6 [4]): no inhibitory effects
- inhibitory effects on CYP2C9 (CYP2C9 [5]): no inhibitory effects
- paracetamol's AUC when co-administered with GCS [6]: increase
- paracetamol's maximum plasma concentration when co-administered with GCS [6]: increase
- inhibitory effect on CYP2E1 (CYP2E1): no inhibitory effect
- cases of INR elevation when coumarin anticoagulants were combined with GCS ([7]; EFSA scientific opinion): 40 cases
- INR on co-administration with warfarin ([7]; interaction case, co-administration of CS and GCS with warfarin): elevated INR
- adverse effects in clinical trials [8]: do not exhibit significant adverse effects
